Laboratory results as given in publication PMC2954055 (Journal of immunology (Baltimore, Md. : 1950), 2009).

Target: BRS peptide (biotinylated peptide consisting of just the BRS of CD3 ε) (Mus musculus, UniProt P22646)
Assay: solid-phase ELISA, biotinylated peptide, streptavidin-HRP
Format: binding
Settings: PBS, room temperature, data not shown

| Substance | Kd (20/80 PI(4)P/PC coated on plate) | Kd (20/80 PI(4,5)P2/PC coated on plate) |
| --- | --- | --- |
| PI(4)P | ~40 nM | – |
| PI(4,5)P2 | – | ~40 nM |
